Assay results published in PubChem BioAssay AID1963833 (Molecular Pharmacology Branch, DTP, NCI, 2024).

Test system: 883617-216-R-J1-PDC complex spheroid viability
Assay: Anticancer human tumor 883617-216-R-J1-PDC patient-derived bladder carcinoma cell line growth inhibition [POLQ]
Settings: for IC50: curve of first compound; for viability, T/C: stronger effect = lower value; active = viability on the fitted dose curve at most 10% of control; inactive = the rest
Protocol: Multicellular complex tumor spheroid response to Polymerase (POL) inhibitors (novobiocin, ART-558, RP6685) in combination with a variety of drugs and investigational agents in selected tumor cell lines
The POL inhibitors (novobiocin, ART-558, and RP6685) were evaluated both individually and in combination with standard of care and investigational anticancer small molecules within a complex spheroid model of solid tumors. . Complex spheroids include a stromal component modeled by human endothelial cells (HUVEC) and fibroblasts modeled by human mesenchymal stem cells (MSCs). The concentration ranges selected for each drug and investigational agent were based upon clinically achievable concentrations if the clinical Cmax of the agent was known.
Compounds. The drugs and investigational agents: novobiocin (NSC847541), ART-558 (NSC835418), RP-6685 (NSC848927), peposertib (NSC802822), ceralasertib (NSC780249), elimusertib (NSC800525), camonsertib (NSC841442), AZD-1390 (NSC803789), olaparib (NSC753686), talazoparib (NSC767125), rucaparib (NSC756644), sotorasib (NSC818433), MRTX-1133 (NSC836407), SN-38 (NSC673596), topotecan (NSC609699), epotoside (NSC141540), doxorubicin (NSC123127), gemcitabine (NSC613327), 5-fluorouracil (NSC19893), paclitaxel (NSC125973), vemurafenib (NSC761431), MSA-2 (NSC828583), SN-011 (NSC837082), adavosertib (NSC754352), prexasertib (NSC758257), carboplatin (NSC241240) and oxaliplatin (NSC266046), were obtained from the National Cancer Institute (NCI) Developmental Therapeutics Program Chemical Repository (21). The FDA-approved anticancer drug set is available from the Developmental Therapeutics Program at https://dtp.cancer.gov/organization/dscb/obtaining/. […] The stock solutions were prepared in dimethyl sulfoxide (DMSO, Sigma-Aldrich, St. Louis, MO, cat. D2650), except for the platinum compounds which were prepared in saline (Quality Biological, Gaithersburg, MD, cat. 114-055-101), at 800-fold the tested concentration and stored at -70 degrees C prior to their use. All drugs and investigational agents were tested over a range starting from a high concentration at or near the clinical Cmax and decreasing in half-log increments. If the clinical Cmax for an agent had not been determined, the highest concentration tested was 10 microM, except for SN-38, which was tested at a high concentration of 1 microM.
Cell Culture. All cells were maintained in an incubator at 37 degrees C and 5% CO2 with 95% humidity. The PDC lines were cultured according to standard operating procedures established by the NCI PDMR (https://pdmr.cancer.gov). Table 3 of the manuscript, lists the cell lines along with the number of the three cell types plated to form the mct-spheroids and media for tumor cell growth. After thawing, all PDC lines, except 997537-175-T-J1-PDC and 415267-285-R-J2-PDC, were cultured in Matrigel-coated flasks prepared with a working solution of 1X Ham's F-12 nutrient mix, without supplementation (Thermo Fisher Scientific, cat. 11765054), 100 U/mL penicillin-streptomycin (Thermo Fisher Scientific, cat. 15140122), and 2.5% Matrigel (Corning Inc., Corning, NY, cat. 354248) for the first three passages. The two PDC lines 997537-175-T-J1-PDC and 415267-285-R-J2-PDC were cultured on uncoated flasks. The 857933-349-R-J2-PDC line was cultured in 6C/Colon 1B media containing advanced DMEM/F-12 (Thermo Fisher Scientific, cat. 12634028), 10 mM HEPES (Thermo Fisher Scientific, cat. 15630080), 1X GlutaMAX supplement (Thermo Fisher Scientific, cat. 35050061), 0.1 mg/mL primocin (InvivoGen, San Diego, CA, cat. ant-pm-2), 10% defined fetal bovine serum, heat inactivated (HyClone Laboratories Inc., Logan, UT, cat. SH30070.03HI), 50% L-WRN conditioned media (ATCC, cat. CRL-3276), 1.25 mM N-Acetyl-L-cysteine (Sigma-Aldrich, cat. A9165), 10 mM nicotinamide (Sigma-Aldrich, cat. N0636), 1X B-27 supplement (Thermo Fisher Scientific, cat. 17504044), 1X N-2 supplement (Thermo Fisher Scientific, cat. […]
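Also: spheroids exposed to compounds for seven days before readout.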

CCCS(=O)(=O)Nc1ccc(F)c(C(=O)c2c[nH]c3ncc(-c4ccc(Cl)cc4)cc23)c1F + Cc1cccc(N(C)C(=O)C2C(O)CCN2c2nc(C)cc(C(F)(F)F)c2C#N)c1
> 10 µM: IC50 (second compound 0.0316 µM) | IC50 (second compound 0.1 µM) | IC50 (second compound 0.316 µM) | IC50 (second compound 1 µM) | IC50 (second compound 3.16 µM) | IC50 (second compound 10 µM)
inactive: viability, T/C (second compound 0.0316 µM, first compound 0.0316 µM) 89.5% | viability, T/C (second compound 0.0316 µM, first compound 0.1 µM) 93.6% | viability, T/C (second compound 0.0316 µM, first compound 0.316 µM) 99.3% | viability, T/C (second compound 0.0316 µM, first compound 1 µM) 104% | viability, T/C (second compound 0.0316 µM, first compound 3.16 µM) 83.7% | viability, T/C (second compound 0.0316 µM, first compound 10 µM) 56.8% | viability, T/C (second compound 0.1 µM, first compound 0.0316 µM) 105% | viability, T/C (second compound 0.1 µM, first compound 0.1 µM) 94.3% | viability, T/C (second compound 0.1 µM, first compound 0.316 µM) 97.2% | viability, T/C (second compound 0.1 µM, first compound 1 µM) 90.4% | viability, T/C (second compound 0.1 µM, first compound 3.16 µM) 93.9% | viability, T/C (second compound 0.1 µM, first compound 10 µM) 55.5% | viability, T/C (second compound 0.316 µM, first compound 0.0316 µM) 86.9% | viability, T/C (second compound 0.316 µM, first compound 0.1 µM) 114% | viability, T/C (second compound 0.316 µM, first compound 0.316 µM) 98.4% | viability, T/C (second compound 0.316 µM, first compound 1 µM) 87.2% | viability, T/C (second compound 0.316 µM, first compound 3.16 µM) 80.6% | viability, T/C (second compound 0.316 µM, first compound 10 µM) 64.3% | viability, T/C (second compound 1 µM, first compound 0.0316 µM) 97.4% | viability, T/C (second compound 1 µM, first compound 0.1 µM) 91.4% | viability, T/C (second compound 1 µM, first compound 0.316 µM) 92.7% | viability, T/C (second compound 1 µM, first compound 1 µM) 93.8% | viability, T/C (second compound 1 µM, first compound 3.16 µM) 92.9% | viability, T/C (second compound 1 µM, first compound 10 µM) 51.7% | viability, T/C (second compound 3.16 µM, first compound 0.0316 µM) 116% | viability, T/C (second compound 3.16 µM, first compound 0.1 µM) 97.3% | viability, T/C (second compound 3.16 µM, first compound 0.316 µM) 106% | viability, T/C (second compound 3.16 µM, first compound 1 µM) 108% | viability, T/C (second compound 3.16 µM, first compound 3.16 µM) 89.2% | viability, T/C (second compound 3.16 µM, first compound 10 µM) 55.7% | viability, T/C (second compound 10 µM, first compound 0.0316 µM) 98.2% | viability, T/C (second compound 10 µM, first compound 0.1 µM) 97.2% | viability, T/C (second compound 10 µM, first compound 0.316 µM) 104% | viability, T/C (second compound 10 µM, first compound 1 µM) 102% | viability, T/C (second compound 10 µM, first compound 3.16 µM) 100% | viability, T/C (second compound 10 µM, first compound 10 µM) 61.3%
